Among the data in patent publication US12110279B2, “Triazolones, tetrazolones, and imidazolones, or their salts, and pharmaceutical compositions comprising the same” (Yuhan Corporation, priority 2021, dated 2024) are IC50 values, retold here.

Structures are written as SMILES. Counter-ions that a name gives are not always drawn. Like-named read-outs stand apart in the source and are kept apart here.

Holding throughout (assay type): biochemical
For one experiment, the target named is T1, recombinant human VAP-1 (Homo sapiens, UniProt Q16853).
T1 construct: purchased R&D systems
T1 sequence (Q16853 1-763): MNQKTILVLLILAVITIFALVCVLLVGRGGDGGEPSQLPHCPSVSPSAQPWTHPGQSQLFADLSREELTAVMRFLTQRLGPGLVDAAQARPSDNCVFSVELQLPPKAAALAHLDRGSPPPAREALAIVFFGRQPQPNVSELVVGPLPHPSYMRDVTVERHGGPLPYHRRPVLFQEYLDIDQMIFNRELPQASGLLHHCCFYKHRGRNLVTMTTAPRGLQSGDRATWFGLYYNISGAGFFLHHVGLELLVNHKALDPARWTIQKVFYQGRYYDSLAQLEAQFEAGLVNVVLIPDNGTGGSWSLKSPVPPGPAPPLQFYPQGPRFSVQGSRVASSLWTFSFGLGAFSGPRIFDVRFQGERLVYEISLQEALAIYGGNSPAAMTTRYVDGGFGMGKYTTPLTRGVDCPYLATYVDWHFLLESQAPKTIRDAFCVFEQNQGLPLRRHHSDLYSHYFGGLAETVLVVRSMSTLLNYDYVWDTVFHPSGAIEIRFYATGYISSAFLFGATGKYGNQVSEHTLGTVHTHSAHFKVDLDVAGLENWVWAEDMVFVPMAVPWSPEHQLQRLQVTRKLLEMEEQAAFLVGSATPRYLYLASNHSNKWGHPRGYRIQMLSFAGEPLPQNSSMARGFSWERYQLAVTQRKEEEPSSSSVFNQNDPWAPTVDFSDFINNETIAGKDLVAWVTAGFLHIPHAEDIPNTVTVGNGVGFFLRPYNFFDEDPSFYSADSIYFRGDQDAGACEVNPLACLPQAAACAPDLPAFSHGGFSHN
Kind of experiment: Amplex Red HRP-coupled amine oxidase activity evaluation, recombinant human VAP-1. To be noted: substrate 1 mM benzylamine; 30 min preincubation at 37° C.; read-out: Inhibitory Activity (IC50, nM) human VAP-1. The method, boiled down: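 Benzylamine served as substrate (1 mM in the reaction mix, with 200 uM Amplex Red and 1 U/mL HRP), with the H2O2 produced detected as resorufin fluorescence. Compound and VAP-1 were first incubated for 30 min at 37° C in pH 7.4 sodium phosphate buffer.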

The target of experiment [1] is T2, recombinant human MAO-A (monoamine oxidase-A) (Homo sapiens, UniProt P21397).
T2 construct: purchased Sigma-Aldrich
T2 sequence (P21397 1-527): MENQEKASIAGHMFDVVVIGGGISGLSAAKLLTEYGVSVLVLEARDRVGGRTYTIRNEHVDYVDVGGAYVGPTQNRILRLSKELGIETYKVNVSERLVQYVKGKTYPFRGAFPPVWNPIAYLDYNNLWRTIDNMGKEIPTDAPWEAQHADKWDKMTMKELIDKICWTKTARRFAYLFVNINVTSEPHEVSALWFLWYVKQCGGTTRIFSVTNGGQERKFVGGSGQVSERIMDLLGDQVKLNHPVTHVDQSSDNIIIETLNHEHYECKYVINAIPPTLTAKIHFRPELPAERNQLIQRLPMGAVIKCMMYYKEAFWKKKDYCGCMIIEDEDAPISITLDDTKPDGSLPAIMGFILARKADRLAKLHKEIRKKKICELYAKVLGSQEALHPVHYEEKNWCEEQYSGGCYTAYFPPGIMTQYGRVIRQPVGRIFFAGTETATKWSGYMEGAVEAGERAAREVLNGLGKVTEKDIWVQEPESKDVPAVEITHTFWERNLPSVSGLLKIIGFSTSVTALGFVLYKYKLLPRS
As to the kind of experiment: Amplex Red HRP-coupled amine oxidase activity evaluation, recombinant human MAO-A. Conditions: substrate 0.5 mM tyramine; read-out: Inhibitory Activity (IC50, nM) MAO-A.

The target in experiment [2] is T3, recombinant human MAO-B (monoamine oxidase-B) (Homo sapiens, UniProt P27338).
T3 construct: purchased Sigma-Aldrich
T3 sequence (P27338 1-520): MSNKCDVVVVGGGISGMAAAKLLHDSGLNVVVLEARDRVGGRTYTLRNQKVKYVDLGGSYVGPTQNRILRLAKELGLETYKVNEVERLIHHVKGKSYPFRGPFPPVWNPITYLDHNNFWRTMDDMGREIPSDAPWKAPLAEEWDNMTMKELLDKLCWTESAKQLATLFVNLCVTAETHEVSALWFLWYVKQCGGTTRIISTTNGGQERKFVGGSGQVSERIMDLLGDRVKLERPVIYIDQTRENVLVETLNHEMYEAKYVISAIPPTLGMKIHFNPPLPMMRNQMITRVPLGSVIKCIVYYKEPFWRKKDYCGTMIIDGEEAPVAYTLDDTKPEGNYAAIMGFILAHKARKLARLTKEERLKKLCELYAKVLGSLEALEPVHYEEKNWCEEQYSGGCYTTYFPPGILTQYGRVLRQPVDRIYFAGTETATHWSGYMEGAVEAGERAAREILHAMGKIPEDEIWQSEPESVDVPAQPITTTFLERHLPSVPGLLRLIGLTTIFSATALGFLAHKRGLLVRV
As to the kind of experiment: Amplex Red HRP-coupled amine oxidase activity evaluation, recombinant human MAO-B. Conditions: substrate 1 mM benzylamine; read-out: Inhibitory Activity (IC50, nM) MAO-B.

Experiment [3] has as its target T4, recombinant human DAO (diamine oxidase) (Homo sapiens, UniProt P19801).
T4 construct: purchased R&D systems
T4 sequence (P19801 20-751): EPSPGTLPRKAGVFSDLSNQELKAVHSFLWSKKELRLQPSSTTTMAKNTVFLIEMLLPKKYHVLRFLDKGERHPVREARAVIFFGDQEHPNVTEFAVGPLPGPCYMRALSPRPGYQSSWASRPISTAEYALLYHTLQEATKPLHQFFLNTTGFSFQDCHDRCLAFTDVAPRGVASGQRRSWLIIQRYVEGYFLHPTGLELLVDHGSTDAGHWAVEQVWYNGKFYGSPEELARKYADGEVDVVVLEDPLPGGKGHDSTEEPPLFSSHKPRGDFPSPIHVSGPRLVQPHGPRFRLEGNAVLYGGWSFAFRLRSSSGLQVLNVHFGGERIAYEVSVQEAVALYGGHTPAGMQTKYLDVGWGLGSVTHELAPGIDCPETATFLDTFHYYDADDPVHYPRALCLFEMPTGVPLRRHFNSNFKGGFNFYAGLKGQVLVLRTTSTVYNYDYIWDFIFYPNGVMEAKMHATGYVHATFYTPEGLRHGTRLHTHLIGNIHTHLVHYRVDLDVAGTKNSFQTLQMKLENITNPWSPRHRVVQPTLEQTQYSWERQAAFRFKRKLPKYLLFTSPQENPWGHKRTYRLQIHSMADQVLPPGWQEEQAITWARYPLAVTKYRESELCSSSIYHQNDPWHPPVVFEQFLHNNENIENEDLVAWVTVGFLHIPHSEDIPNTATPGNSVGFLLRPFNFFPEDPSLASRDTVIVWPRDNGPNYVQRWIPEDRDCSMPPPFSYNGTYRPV
Kind of experiment: Amplex Red HRP-coupled amine oxidase activity evaluation, recombinant human DAO.

The mark [4] stands for this setting: substrate 1 mM putrescine, read-out: Inhibitory Activity (IC50, nM) DAO.

What is called IC50 is the concentration that inhibits the measured activity by half. Consider `Cc1cc(-c2cccc(-n3nnn(CC(CN)=C(F)F)c3=O)c2)cc2c1NC(=O)CC2` [Example 13, 6-[3-[4-[2-(aminomethyl)-3,3-difluoro-allyl]-5-oxo-tetrazol-1-yl]phenyl]-8-methyl-3,4-dihydro-1H-quinolin-2-one trifluoroacetate], for which the IC50 on recombinant human VAP-1 is 0.7 nM; in experiment [1], more than 100000 nM; in experiment [2], 7800 nM; in experiment [3] (setting [4]) it was 12 nM.

As to `Cc1nn(CC(CN)=C(F)F)c(=O)n1Cc1ccc(-c2ccc(N3CCNCC3)cc2)s1` [Example 3, 2-[2-(aminomethyl)-3,3-difluoro-allyl]-5-methyl-4-[[5-(4-piperazin-1-ylphenyl)-2-thienyl]methyl]-1,2,4-triazol-3-one di-trifluoroacetate], the IC50 at recombinant human VAP-1 was 18 nM; in experiment [1] it was more than 100000 nM; in experiment [2], more than 100000 nM; in experiment [3] (setting [4]) it was more than 100000 nM.

For the compound `Cc1cc(-c2cccc(Cn3nnn(CC(CN)=C(F)F)c3=O)c2)cc2c1NC(=O)CC2` [Example 31, 6-[3-[[4-[2-(aminomethyl)-3,3-difluoro-allyl]-5-oxo-tetrazol-1-yl]methyl]phenyl]-8-methyl-3,4-dihydro-1H-quinolin-2-one trifluoroacetate], the IC50 worked out at 0.6 nM on recombinant human VAP-1, 82100 nM in experiment [1], 9000 nM in experiment [2] and 127 nM in experiment [3] (setting [4]).

For `CN1C(=O)CCc2cc(-c3cccc(Cn4nnn(CC(CN)=C(F)F)c4=O)c3)ccc21` [Example 33, 6-[3-[[4-[2-(aminomethyl)-3,3-difluoro-allyl]-5-oxo-tetrazol-1-yl]methyl]phenyl]-1-methyl-3,4-dihydroquinolin-2-one trifluoroacetate], the IC50 at recombinant human VAP-1 turned out to be 0.3 nM; in experiment [1] it was 81400 nM; in experiment [2] it was 3990 nM; in experiment [3] (setting [4]), 122 nM.

`CN1C(=O)CCc2cc(-c3cccc(-n4nnn(CC(CN)=C(F)F)c4=O)c3)ccc21` [Example 14, 6-[3-[4-[2-(aminomethyl)-3,3-difluoro-allyl]-5-oxo-tetrazol-1-yl]phenyl]-1-methyl-3,4-dihydroquinolin-2-one trifluoroacetate]: the IC50 at recombinant human VAP-1 was 1.4 nM; in experiment [1], more than 100000 nM; in experiment [2], 2470 nM; in experiment [3], 12 nM.

Consider `CS(=O)(=O)c1ccc(-c2cccc(-n3nnn(CC(CN)=C(F)F)c3=O)c2)cc1` [Example 10, 1-[2-(aminomethyl)-3,3-difluoro-allyl]-4-[3-(4-methylsulfonylphenyl)phenyl]tetrazol-5-one trifluoroacetate], for which the IC50 was 0.4 nM at recombinant human VAP-1, more than 100000 nM in experiment [1], 53200 nM in experiment [2] and 2.2 nM in experiment [3].

In the case of `NCC(Cn1nnn(-c2cc(-c3ccc(N4CCNCC4)cc3)cs2)c1=O)=C(F)F` [Example 36, 1-[2-(aminomethyl)-3,3-difluoro-allyl]-4-[4-(4-piperazin-1-ylphenyl)-2-thienyl]tetrazol-5-one di-trifluoroacetate], the half-inhibitory concentration (IC50) is 1.1 nM on recombinant human VAP-1, more than 100000 nM in experiment [1], more than 100000 nM in experiment [2] and 8470 nM in experiment [3] (setting [4]).

With `CS(=O)(=O)c1ccc(-c2ccc(Cn3nnn(CC(CN)=C(F)F)c3=O)s2)cc1` [Example 43, 1-[2-(aminomethyl)-3,3-difluoro-allyl]-4-[[5-(4-methylsulfonylphenyl)-2-thienyl]methyl]tetrazol-5-one trifluoroacetate], the IC50 on recombinant human VAP-1 amounted to 0.4 nM; in experiment [1], 72800 nM; in experiment [2] it was 19700 nM; in experiment [3] (setting [4]), 911 nM.

On to `CCn1cc(-c2csc(-n3nnn(CC(CN)=C(F)F)c3=O)c2)ccc1=O` [Example 37, 5-[5-[4-[2-(aminomethyl)-3,3-difluoro-allyl]-5-oxo-tetrazol-1-yl]-3-thienyl]-1-ethyl-pyridin-2-one trifluoroacetate], for which the IC50 on recombinant human VAP-1 is 0.3 nM; in experiment [1], more than 100000 nM; in experiment [2] it was 3450 nM; in experiment [3] (setting [4]), 25300 nM.

As to `Cc1nn(CC(CN)=C(F)F)c(=O)n1Cc1ccc(-c2ccc3c(c2)OCO3)s1` [Example 6, 2-[2-(aminomethyl)-3,3-difluoro-allyl]-4-[[5-(1,3-benzodioxol-5-yl)-2-thienyl]methyl]-5-methyl-1,2,4-triazol-3-one trifluoroacetate], the IC50 at recombinant human VAP-1 is 2.5 nM; in experiment [1], more than 100000 nM; in experiment [2], more than 100000 nM; in experiment [3] (setting [4]), more than 100000 nM.
